Assay results as given in patent publication US12539279B2, “Supramolecular ionizable lipid molecules with heteroatomic tuning for nucleic acid delivery” (priority 2023, dated 2026).

Columns and labels:
[1] = tested on: firefly luciferase protein expression; test: Intramuscular expression profile of formulated firefly luciferase mRNA in mice (IVIS); assay type: in vivo, BALB/c mice; settings: intramuscular firefly luciferase mRNA-LNP
Description: All procedures used in animal studies conducted at the University of Toronto were approved by Institutional Animal Care and Use committee (IACUC) under protocol number 20012621 and comply with all applicable local, provincial, and federal regulations. Female BALB/c mice (7-8 weeks old) were purchased from Charles River Laboratories and acclimated for 1 to 2 weeks before initiation of the study.
Mice (n=4) were injected in both quadriceps with 0.5 μg of formulated firefly luciferase mRNA in 50 μL. At various timepoints (6 hours, 24 hours, 48 hours, and 96 hours post-dose), mice were injected intraperitoneally with 3 mg D-Luciferin (Thermo Scientific 88291) in 200 μL 1×PBS. 5 minutes later, mice were anesthetized and imaged on an in vivo imaging system (PerkinElmer, IVIS Spectrum) to measure total bioluminescent flux (photons/second) in each hindlimb (FIG. 2). The area under curve (AUC) for individual hindlimbs was determined with GraphPad Prism 9.

THP-1 monocytes = assay type: cell-based, human; settings: THP-1, 500 ng/well mRNA, 24 hours post-transfection
Description: THP-1 monocytes are human cells isolated from the peripheral blood of a patient with acute monocytic leukemia. […] Cells were plated at a density of 100,000 cells per well in a 96-well plate and transfected in quadruplicates with 500 ng/well of firefly luciferase mRNA formulated in lipid nanoparticles. Cell viability and firefly luciferase expression were determined after 24 hours with a plate reader assay, following the manufacturer's protocol (Promega E7110).

For `CCCCCCCCCCN(CCCCCCCCCC)CCOC(=O)CCCN(CCO)CCCC(=O)OCCN(CCCCCCCCCC)CCCCCCCCCC` [Compound I-3], the “intramuscular expression (in words)” value [1] was “higher intramuscular expression than DLin-MC3-DMA” and the “cell viability / toxicity” value (THP-1 monocytes) was “significant cell death”.
